Inconclusive results and toxic doses are left out.
Test system: L1210 leukemia ip in BDF1 mice, survival T/C
Test: NCI In Vivo Anticancer Drug Screen. Data for tumor model L1210 Leukemia (intraperitoneal) in B6D2F1 (BDF1) mice
Conditions: endpoint: mean survival time, higher = longer survival
How it was run: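 Tumor cells were implanted, animals were treated, and survival was followed. The result divides the treated measurement by the vehicle-control measurement.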

[1] = dose: 100.0 mg/kg/injection, schedule: Q01DX001 (ip), vehicle: saline
[2] = dose: 200.0 mg/kg/injection, schedule: Q01DX001 (ip), vehicle: saline
[3] = dose: 400.0 mg/kg/injection, schedule: Q01DX001 (ip), vehicle: saline
[4] = dose: 100.0 mg/kg/injection, schedule: Q04DX002 (ip), vehicle: Klucel (hydroxypropylcellulose) (HPC)
[5] = dose: 400.0 mg/kg/injection, schedule: Q04DX002 (ip), vehicle: Klucel (hydroxypropylcellulose) (HPC)
[6] = dose: 25.0 mg/kg/injection, schedule: Q04DX003 (ip), vehicle: Klucel (hydroxypropylcellulose) (HPC)
[7] = dose: 100.0 mg/kg/injection, schedule: Q04DX003 (ip), vehicle: Klucel (hydroxypropylcellulose) (HPC)
[8] = dose: 200.0 mg/kg/injection, schedule: Q04DX003 (ip), vehicle: Klucel (hydroxypropylcellulose) (HPC)
[9] = dose: 400.0 mg/kg/injection, schedule: Q04DX003 (ip), vehicle: Klucel (hydroxypropylcellulose) (HPC)
[10] = dose: 200.0 mg/kg/injection, schedule: Q04DX002 (ip), vehicle: Klucel (hydroxypropylcellulose) (HPC)

CC(O)CN(Cc1c(O)ccc2ccccc12)CC(C)OS(C)(=O)=O (stereo unspecified)
T/C [1]: 97 % of control | T/C [2]: 93 % of control | T/C [3]: 95 % of control

O=C(Nc1cccc(O)c1)Nc1cccc(Cl)c1Cl
T/C (dose: 100.0 mg/kg/injection, schedule: Q01DX009 (ip), vehicle: saline with Tween-80): 91 % of control | T/C (dose: 200.0 mg/kg/injection, schedule: Q01DX009 (ip), vehicle: saline with Tween-80): 92 % of control | T/C (dose: 400.0 mg/kg/injection, schedule: Q01DX009 (ip), vehicle: saline with Tween-80): 94 % of control

NP(=O)(N1CC1)N1CC1
T/C (dose: 1.0 mg/kg/injection, schedule: Q01DX001 (ip), vehicle: carboxymethylcellulose (CMC)): 110 % of control | T/C (dose: 1.0 mg/kg/injection, schedule: Q01DX015 (ip), vehicle: carboxymethylcellulose (CMC)): 116 % of control | T/C (dose: 2.0 mg/kg/injection, schedule: Q01DX001 (ip), vehicle: carboxymethylcellulose (CMC)): 124 % of control | T/C (dose: 4.0 mg/kg/injection, schedule: Q01DX001 (ip), vehicle: carboxymethylcellulose (CMC)): 110 % of control | T/C (dose: 15.0 mg/kg/injection, schedule: Q01DX001 (ip), vehicle: carboxymethylcellulose (CMC)): 150 % of control | T/C (dose: 30.0 mg/kg/injection, schedule: Q01DX001 (ip), vehicle: carboxymethylcellulose (CMC)): 186 % of control

CCCCNC(C)(C)C(=O)c1cccs1
T/C (dose: 100.0 mg/kg/injection, schedule: Q04DX003 (ip), vehicle: saline): 102 % of control | T/C (dose: 200.0 mg/kg/injection, schedule: Q04DX003 (ip), vehicle: saline): 86 % of control

c1ccc(CCN(c2ccccc2)c2ccccc2)cc1
T/C (dose: 100.0 mg/kg/injection, schedule: Q01DX001 (ip), vehicle: carboxymethylcellulose (CMC)): 100 % of control | T/C (dose: 200.0 mg/kg/injection, schedule: Q01DX001 (ip), vehicle: carboxymethylcellulose (CMC)): 103 % of control | T/C (dose: 400.0 mg/kg/injection, schedule: Q01DX001 (ip), vehicle: carboxymethylcellulose (CMC)): 103 % of control

CCOc1ccc(NC(=O)c2cc(C(=O)O)c(C(=O)Nc3ccc(OCC)cc3)cc2C(=O)O)cc1
T/C [4]: 109 % of control | T/C [5]: 109 % of control

Cn1ccc2c([N+](=O)[O-])cccc2c1=O
T/C [6]: 92 % of control | T/C (dose: 50.0 mg/kg/injection, schedule: Q04DX003 (ip), vehicle: Klucel (hydroxypropylcellulose) (HPC)): 98 % of control

COC(=O)C(NC(=O)C(C)NC(=O)OC(C)(C)C)C(C)O (stereo unspecified)
T/C [1]: 101 % of control | T/C [2]: 99 % of control | T/C [3]: 101 % of control

Cc1ccc(P(=O)(O)O)c([N+](=O)[O-])c1
T/C [1]: 94 % of control | T/C [2]: 92 % of control

Cc1cc(=O)n(Cc2ccccc2)c(=O)[nH]1
T/C [7]: 98 % of control | T/C [8]: 98 % of control | T/C [9]: 93 % of control

O=C1OC(/C=C/c2ccccc2)=NC/1=C\c1ccccc1
T/C (dose: 100.0 mg/kg/injection, schedule: Q04DX002 (ip), vehicle: saline with Tween-80): 92 % of control | T/C (dose: 200.0 mg/kg/injection, schedule: Q04DX002 (ip), vehicle: saline with Tween-80): 95 % of control | T/C (dose: 400.0 mg/kg/injection, schedule: Q04DX002 (ip), vehicle: saline with Tween-80): 92 % of control

CC(C)(NCCNC(C)(C)[P+](=O)O)[P+](=O)O
T/C [7]: 96 % of control | T/C [8]: 93 % of control | T/C [9]: 93 % of control

Cc1ccc(NC(=O)Oc2ccc(Br)cc2)c([N+](=O)[O-])c1
T/C [4]: 99 % of control | T/C [10]: 115 % of control | T/C [5]: 92 % of control

CN(N)P(=S)(c1ccccc1)N(C)N
T/C (dose: 6.25 mg/kg/injection, schedule: Q01DX009 (ip), vehicle: Klucel (hydroxypropylcellulose) (HPC)): 97 % of control | T/C (dose: 12.5 mg/kg/injection, schedule: Q01DX009 (ip), vehicle: Klucel (hydroxypropylcellulose) (HPC)): 100 % of control | T/C (dose: 12.5 mg/kg/injection, schedule: Q04DX003 (ip), vehicle: Klucel (hydroxypropylcellulose) (HPC)): 97 % of control | T/C (dose: 25.0 mg/kg/injection, schedule: Q01DX009 (ip), vehicle: Klucel (hydroxypropylcellulose) (HPC)): 94 % of control | T/C [6]: 92 % of control

CCN(CC)c1ccc(Cc2cc(O)c3c(c2O)C(=O)c2ccccc2C3=O)cc1
T/C (dose: 50.0 mg/kg/injection, schedule: Q01DX009 (ip), vehicle: Klucel (hydroxypropylcellulose) (HPC)): 89 % of control | T/C (dose: 100.0 mg/kg/injection, schedule: Q01DX009 (ip), vehicle: Klucel (hydroxypropylcellulose) (HPC)): 104 % of control | T/C [4]: 89 % of control | T/C [10]: 89 % of control | T/C [5]: 96 % of control

COc1ccc2c3c1OC1CC(O)C=CC31CCN(C)C2 (stereo unspecified)
T/C (dose: 2.5 mg/kg/injection, schedule: Q01DX009 (ip), vehicle: saline): 102 % of control | T/C (dose: 2.9 mg/kg/injection, schedule: Q01DX Z (ip), vehicle: saline): 105 % of control | T/C (dose: 5.0 mg/kg/injection, schedule: Q01DX009 (ip), vehicle: saline): 107 % of control

From PubChem BioAssay AID248 (DTP/NCI, 2004)
